The assay has as its system LNC. In words: LNC proliferative response to overlapping peptides of HSP60. It counts as cell-based, Lewis rats. The following applies: day 26 after AA induction, SI±SEM, SI<2 considered not significant. The procedure: T-cell proliferation assays were performed at day 26 after the induction of AA, when the disease is at its peak, as previously described (Quintana et al., 2002). Briefly, popliteal and inguinal lymph node cells (LNC), were cultured in quadruplicates in 200 μl round bottom microtiter wells (Costar Corp., Cambridge, USA) at 2×10^5 cells per well with or without antigen. The T-cell mitogen Concanavalin A (Con A) was used as a positive control for T-cell proliferation. Cultures were incubated for 96 hr at 37° C. in a humidified atmosphere of 5% CO2. T-cell responses were detected by the incorporation of [methyl-3H]-thymidine (Amersham, Buckinghamshire, UK; 1 μCi/well), which was added to the wells for the last 18 hr. The stimulation index (SI) was computed as the ratio of the mean c.p.m. of antigen- or mitogen-containing wells to control wells cultured with medium alone. The results of T-cell proliferation experiments are shown as SI±SEM, T-cell responses with SI<2 were considered not significant.
It was previously reported that the suppression of AA by pHSP60 DNA vaccination was associated with T-cell reactivity to a single HSP60 peptide epitope, Hu3 (Quintana et al., 2003). […]

These results are taken from patent publication US20090202618A1, “Dna vaccines encoding hsp60 peptide fragments for treating autoimmune diseases” (Yeda Research & Development Co. Ltd, priority 2003, published 2009).

Take “KFGADARALMLQGVDLLADA (human hsp60 epitope) [Hu3]”: the “Stimulation Index (SI)” value is reported as “did not respond” (LNC from pHSP70-vaccinated rats) and “did not respond” (LNC from pcDNA3-vaccinated rats).
